Assay results: patent publication US20240207292A1, “BORONIC ACID COMPOUNDS, COMPOSITIONS AND METHODS” (Trustees of Tufts College, priority 2021, published 2024)

Experiment: Radiochemical purity over time at room temperature (radio-HPLC)
Format: physicochemical
Conditions: for three days at room temperature; formulation with N-acetyl methionine
Experimental: The labeling efficiency was analyzed by instant thin layer chromatography (iTLC) and was typically >98%. For iTLC analysis, 1 μL of diluted labeling solution was applied to a strip of iTLC-SA chromatography paper (Agilent P/N A120B12, 114×2.5 mm) and developed in 0.1M citrate buffer (8 cm solvent migration) to assess free ^177Lu (Rf>0.5) and [^177Lu]-6555 (Rf˜0). The iTLC strips were analyzed using an Eckert & Ziegler AR-2000 Radio-TLC Imaging Scanner. The radiochemical purity was analyzed by high performance chromatography (HPLC) and was typically >90%. Briefly, the product was analyzed using a Phenomenex Luna 3.0 μm C18(2), 100 Å, 150 mm×4.6 mm column. Eluent A: 50 mM ammonium acetate in water, eluent B: acetonitrile. Gradient: 2% B from 0-5 min; 2% to 26% B from 5-20 min; 26% to 98% B from 20-25 min; 98% to 2% B from 25-26 min; 2% B from 26-30 min. Flow rate: 1.0 mL/min, Radio-HPLC detector: NaI (Eckert & Zeigler FC-1000), UV: 215 nm. The radiochemical purity remained >90% for three days at room temperature.
(§1) The above depicted radiopharmaceutical [^177Lu]-6952 can be prepared as described in Example 20 using the radiochemical precursor 6952 (Example 21 above). The labeling efficiency was analyzed by instant thin layer chromatography (iTLC) and was typically >98%. […] The iTLC strips were analyzed using an Eckert & Ziegler AR-2000 Radio-TLC Imaging Scanner. The radiochemical purity was analyzed by high performance chromatography (HPLC) and was typically >90%. Briefly, the product was analyzed using a Phenomenex Luna 3.0 μm C18(2), 100A, 150 mm×4.6 mm column. […]
as §1, with “The” for “The above depicted radiopharmaceutical [^177Lu]-6952 can be prepared as described in Example 20 using the radiochemical precursor 6952 (Example 21 above). The”, “>95%.” for “>98%.”, “>95%.” for “>90%.”
The labeling efficiency was analyzed by instant thin layer chromatography (iTLC) and was typically >95%. […]

SMILES: C[C@@H](NC(=O)[C@H]1CC[C@H](CNC(=O)CN2CCN3CCN4CCN(CC2)CC(=O)O[CH2][Lu]([CH2]COC(=O)C3)[CH2]COC(=O)C4)CC1)C(=O)N1CCC[C@H]1B(O)O [[^177Lu]-6952]
- radiochemical purity remained: > 90%

SMILES: C[C@@H](NC(=O)c1ccc(CNC(=O)CN2CCN3CCN4CCN(CC2)CC(=O)O[CH2][Lu]([CH2]COC(=O)C3)[CH2]COC(=O)C4)cc1)C(=O)N1CCC[C@H]1B(O)O [[^177Lu]-6555]
- radiochemical purity remained: > 90%
